Like-named read-outs stand apart in the source and are kept apart here.
Assays:
SIRT1 = target: T1, SIRT1 (Homo sapiens, UniProt Q96EB6); assay: MALDI-TOF MS deacetylation assay; assay type: biochemical
T1 construct: purchased Biomol International, Inc. / Enzo Life Sciences / BlueSky BioTech
T1 sequence (Q96EB6 1-747): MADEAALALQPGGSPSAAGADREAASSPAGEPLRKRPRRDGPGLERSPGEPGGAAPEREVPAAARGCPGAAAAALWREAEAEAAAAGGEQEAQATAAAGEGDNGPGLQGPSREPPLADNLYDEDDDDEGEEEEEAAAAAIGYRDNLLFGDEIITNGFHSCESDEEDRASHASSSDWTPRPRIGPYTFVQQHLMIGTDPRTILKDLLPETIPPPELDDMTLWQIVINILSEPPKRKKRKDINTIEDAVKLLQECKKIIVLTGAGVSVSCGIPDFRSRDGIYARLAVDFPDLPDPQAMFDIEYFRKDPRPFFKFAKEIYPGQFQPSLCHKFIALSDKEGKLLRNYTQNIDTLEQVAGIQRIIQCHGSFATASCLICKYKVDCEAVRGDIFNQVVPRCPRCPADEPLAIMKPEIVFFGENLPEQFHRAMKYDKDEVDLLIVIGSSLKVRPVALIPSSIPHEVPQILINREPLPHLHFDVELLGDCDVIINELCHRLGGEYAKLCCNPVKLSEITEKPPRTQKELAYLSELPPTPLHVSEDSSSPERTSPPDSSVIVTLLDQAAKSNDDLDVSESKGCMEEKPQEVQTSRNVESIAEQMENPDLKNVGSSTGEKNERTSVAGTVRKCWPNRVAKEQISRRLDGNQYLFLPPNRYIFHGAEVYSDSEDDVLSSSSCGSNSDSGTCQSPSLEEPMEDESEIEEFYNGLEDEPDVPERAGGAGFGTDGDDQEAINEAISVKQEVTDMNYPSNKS
Description: The assay was performed in a 20 µL reaction. 0.5 µM acetylated peptide and 120 µM NAD^+ in reaction buffer (50 mM Tris-acetate (pH 8), 137 mM NaCl, 2.7 mM KCI, 1 mM MgCl2, 5 mM DTT, 0.05 % BSA) were mixed with compound or DMSO (VC). Reactions were initiated by adding 10 nM of SIRT1. After incubation for 30 min at 37°C, reactions were stopped by formic acid and nicotinamide (f.c. 1% and 5 mM, respectively). Reactions were performed with histone H4 peptide and 1% DMSO unless stated otherwise. […]
(§1) Acetylated and deacetylated peptides were mixed at different ratios in the respective buffer including stop solution and reaction components except the enzyme. Purification, preparation and MS detection were conducted in parallel to reaction samples. CCs were generated for IC50 value determination but not for the screening.
(§2) Peptides were purified by Oasis HLB µElution Plates using a vacuum manifold [S. Sauer et al. J Chromatogr A (2004), 1049, 9-16]. Plate columns were conditioned by 70% ACN and equilibrated with 0.1% TFA. Samples were loaded, desalted by 0.1 % TFA and H2O and eluted in 70% ACN.
(§3) For ultra thin layer (UTL), supernatant of saturated CHCA in ACN / H2O (2:1) and 0.1% TFA. was mixed with isopropanol (1:3) and was spread on a ground steel target. After solvent evaporated excess of CHCA was removed from target surface with a tissue [D. Fenyo et al. J Vis Exp (2007), 192]. The matrix used for sample preparation contained saturated CHCA in ACN / 0.1% TFA (1:2) or ACN / H2O (1:2) depending on peptide size [S. L. Cohen et al. Anal Chem (1996), 68, 31-37]. HLB eluted samples and matrix were mixed (1:4) and spotted on the UTL.
(§4) Samples were measured automatically (AutoXecute software, Bruker Daltonik GmbH) using an ultraflex II MALDI-TOF mass spectrometer (Bruker Daltonik GmbH) in positive ion reflector mode. Laser power and detector gain were adjusted prior to every automatic run, which were performed in random walk movement.
(§5) For assay optimization and IC50 determination, 1000 shots were accumulated in 100 satisfactory shot steps (fuzzy control). At least one peak within a defined mass range had to fulfill the following criteria for the spectra to be accumulated: Absolute (min.) intensity: 800; S/N: 15; peak width: 0.2.
(§6) A script (Bruker Daltonik GmbH) was employed to analyze peptide peaks in a batch process (flexAnalysis software, Version 3.0, Bruker Daltonik GmbH). Percentage of de-/acetylation were calculated using the sum of the first four monoisotopic peak intensities. CC was generated by plotting experimental vs. calculated peptide acetylation. Measured sample values were interpolated with CC to determine de-/acetylation values (GraphPad Prism). When no CC was created, peak intensity ratios were generated. Verified single NP screening hits had to pass a peak ratio of ≤ 0.1 (deac/ac).
(§7) As IC50 values were not gained at initial velocity conditions, values were corrected by a conversion factor according to Wu et al. (Table 5) [G. Wu et al. J Biomol Screen (2003), 8, 694-700].

[1] = target: T2, LXRα ligand binding domain (LBD) (Homo sapiens, UniProt Q13133); assay: dual luciferase reporter gene assay with LXRα ligand binding domain in HEK-293 cells; assay type: cell-based; conditions: +DMSO
T2 construct: expressed in transfected cells; host or cells: HEK-293
T2 sequence (Q13133 164-447): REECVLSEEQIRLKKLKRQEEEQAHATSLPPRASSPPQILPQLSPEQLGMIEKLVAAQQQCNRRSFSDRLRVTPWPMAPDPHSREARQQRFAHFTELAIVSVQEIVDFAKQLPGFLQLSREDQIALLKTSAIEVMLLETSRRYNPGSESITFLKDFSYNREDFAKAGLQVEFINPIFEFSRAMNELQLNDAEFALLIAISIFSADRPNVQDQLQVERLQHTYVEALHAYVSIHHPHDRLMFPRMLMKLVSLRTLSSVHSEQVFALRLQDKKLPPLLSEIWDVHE
Description: The ligand binding domain (LBD) of LXRα (amino acids 164 to 447) or LXRβ (amino acids 154 to 461) was cloned into pBIND [Renilla/Amp] vector (Promega). Selection and amplification were performed in E-coli cells. Purification of the plasmids was performed with a plasmid purification kit (Qiagen). For transfection HEK-293 cells were plated in 96-well plates (TPP) at a density of 3.5 x 10^4 cells/well for 24 h. To investigate the ligand binding on LXRα ligand binding domain, 0.04 ng of renilla luciferase coding plasmide pGL4.75 (Promega), 0.04 ng of LXRα-LBD/GAL4-DBD plasmide and 80 ng of firefly luciferase coding plasmide pGL4.31 (Promega) were used in a total volume of 200 µL for each well. In LXRβ binding assay 40 ng of LXRβ-LBD/GAL4-DBD plasmide were applied in each transfection mix. Transfection was carried out for 4 h with Lipofectamine 2000 Transfection Reagent (Invitrogen) in Opti-MEM medium (Invitrogen). Ligand treatment was performed at different concentrations for 24 h. For lysis and detection dual-luciferase reporter gene assay system (Promega) and POLARstar Omega (BMG LABTECH) were used.

p300 [2] = target: T3, p300 (Homo sapiens, UniProt Q09472); conditions: literature (Balasubramanyam et al.); cited from earlier work
T3 construct: purchased Biomol International, Inc. / Enzo Life Sciences
T3 sequence (Q09472 whole entry, species assumed): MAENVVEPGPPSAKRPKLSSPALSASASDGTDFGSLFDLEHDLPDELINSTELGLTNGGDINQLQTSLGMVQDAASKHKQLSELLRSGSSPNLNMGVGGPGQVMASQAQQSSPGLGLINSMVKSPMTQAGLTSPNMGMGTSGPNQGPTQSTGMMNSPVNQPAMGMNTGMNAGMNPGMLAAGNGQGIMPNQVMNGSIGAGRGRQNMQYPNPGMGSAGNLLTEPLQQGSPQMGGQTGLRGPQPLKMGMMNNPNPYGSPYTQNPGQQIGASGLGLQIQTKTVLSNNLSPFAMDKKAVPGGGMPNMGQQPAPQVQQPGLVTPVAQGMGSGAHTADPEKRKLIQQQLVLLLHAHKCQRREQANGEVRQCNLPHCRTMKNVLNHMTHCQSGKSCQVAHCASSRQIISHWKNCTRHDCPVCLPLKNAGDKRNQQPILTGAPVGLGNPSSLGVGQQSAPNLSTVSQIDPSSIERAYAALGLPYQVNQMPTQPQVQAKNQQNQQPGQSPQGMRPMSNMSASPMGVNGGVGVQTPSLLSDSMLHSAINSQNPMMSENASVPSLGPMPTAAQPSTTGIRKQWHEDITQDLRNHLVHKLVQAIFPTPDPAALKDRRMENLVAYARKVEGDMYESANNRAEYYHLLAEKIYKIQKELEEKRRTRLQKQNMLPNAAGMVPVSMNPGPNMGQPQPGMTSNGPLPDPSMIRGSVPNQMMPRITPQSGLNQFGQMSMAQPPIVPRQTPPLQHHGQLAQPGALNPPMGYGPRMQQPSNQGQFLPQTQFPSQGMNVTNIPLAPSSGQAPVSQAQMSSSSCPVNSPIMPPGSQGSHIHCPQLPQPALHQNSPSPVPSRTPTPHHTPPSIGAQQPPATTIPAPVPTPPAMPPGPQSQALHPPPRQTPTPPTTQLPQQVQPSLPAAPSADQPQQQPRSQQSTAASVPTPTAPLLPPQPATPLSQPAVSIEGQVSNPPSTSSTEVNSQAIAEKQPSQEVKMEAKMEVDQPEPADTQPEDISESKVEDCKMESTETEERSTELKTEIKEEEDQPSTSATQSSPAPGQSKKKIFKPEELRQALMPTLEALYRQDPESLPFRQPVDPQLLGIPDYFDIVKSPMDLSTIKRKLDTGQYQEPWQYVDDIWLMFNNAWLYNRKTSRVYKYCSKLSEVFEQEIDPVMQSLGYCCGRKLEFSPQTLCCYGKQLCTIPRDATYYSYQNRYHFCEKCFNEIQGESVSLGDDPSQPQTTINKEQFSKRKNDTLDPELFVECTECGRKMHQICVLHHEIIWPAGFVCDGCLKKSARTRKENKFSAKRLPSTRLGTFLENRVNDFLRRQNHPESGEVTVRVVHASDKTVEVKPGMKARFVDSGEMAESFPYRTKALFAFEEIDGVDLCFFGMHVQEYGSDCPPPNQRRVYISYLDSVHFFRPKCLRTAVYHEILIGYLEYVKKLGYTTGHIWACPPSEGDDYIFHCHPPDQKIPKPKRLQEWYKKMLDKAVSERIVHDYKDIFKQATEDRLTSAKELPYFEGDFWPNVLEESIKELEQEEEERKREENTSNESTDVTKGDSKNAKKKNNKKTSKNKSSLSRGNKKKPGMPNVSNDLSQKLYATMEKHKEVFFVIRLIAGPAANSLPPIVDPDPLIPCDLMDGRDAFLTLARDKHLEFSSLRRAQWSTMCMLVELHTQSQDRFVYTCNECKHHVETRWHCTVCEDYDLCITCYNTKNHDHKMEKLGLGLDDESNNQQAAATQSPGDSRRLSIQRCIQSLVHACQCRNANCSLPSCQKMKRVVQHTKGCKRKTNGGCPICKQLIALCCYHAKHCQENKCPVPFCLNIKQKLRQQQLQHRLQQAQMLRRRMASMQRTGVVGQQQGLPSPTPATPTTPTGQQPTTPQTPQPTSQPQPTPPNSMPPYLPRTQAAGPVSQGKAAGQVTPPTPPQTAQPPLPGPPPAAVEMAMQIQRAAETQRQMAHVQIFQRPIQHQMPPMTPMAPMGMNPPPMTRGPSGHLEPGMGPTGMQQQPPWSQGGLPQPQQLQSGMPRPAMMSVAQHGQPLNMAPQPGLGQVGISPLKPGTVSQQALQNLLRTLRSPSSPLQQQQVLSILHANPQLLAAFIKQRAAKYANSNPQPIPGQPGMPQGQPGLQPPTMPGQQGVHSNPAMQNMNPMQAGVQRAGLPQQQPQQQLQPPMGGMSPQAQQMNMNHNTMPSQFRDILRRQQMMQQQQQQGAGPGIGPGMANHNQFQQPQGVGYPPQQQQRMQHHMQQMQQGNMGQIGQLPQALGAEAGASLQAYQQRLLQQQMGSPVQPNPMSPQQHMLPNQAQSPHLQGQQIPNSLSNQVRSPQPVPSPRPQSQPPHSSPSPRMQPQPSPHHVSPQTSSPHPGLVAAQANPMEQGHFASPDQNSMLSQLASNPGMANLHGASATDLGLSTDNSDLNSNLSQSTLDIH

p300 [3] = target: T3, p300; assay: radioactivity based assay (Reaction Biology Corp.); assay type: biochemical
Text: IC50 for NP 9 was also validated by a radioactivity based assay, and performed by Reaction Biology Corp. (RBC).

THP-1 cells = assay: TNFalpha ELISA in LPS-treated THP-1 cells; assay type: cell-based, human; conditions: 10 µM, LPS for 5 hours
Description: THP-1 cells were seeded in a 24-well plate (1.2 x 10^6 cells/well) in a volume of 0.4 mL. Cells were treated with 10 µM NP 9 or DMSO (VC). After 1 h, 10 ng/mL LPS (Sigma, cat.no. L5293) were added and incubated for another 5 h. Medium was separated from the cells by centrifugation and used for detection of TNFalpha release by a human TNF alpha ELISA Kit [V. M. Nayagam et al. J Biomol Screen (2006), 11, 959-967].

p300 [4] = target: T3, p300; assay: MALDI-TOF MS acetylation assay; assay type: biochemical
Description: Reactions were started by adding 0.5 µM HAT peptide and 120 µM AcCoA and incubated for 60 min at 30°C. After incubation at 30°C for up to 60 min, reactions were stopped by formic acid (f.c. 2%). Reaction buffer consisted of 50 mM HEPES (pH 7.9), 0.1 mM EDTA and 50 µg/mL BSA.
as §1, §2, §3, §4, §5, §6, §7

[5] = Table 3, corrected values (see Table 5), read-out: IC50 values
[6] = corrected by conversion factor according to Wu et al., read-out: Corrected IC50
[7] = uncorrected, not at initial velocity conditions, read-out: Obtained IC50'

| Compound | IC50 (SIRT1; [5]) | IC50 (SIRT1; [6]) | IC50 (SIRT1; [7]) | further results |
| --- | --- | --- | --- | --- |
| O=c1cc(-c2ccc(O)c(-c3c(O)cc(O)c4c(=O)cc(-c5ccc(O)cc5)oc34)c2)oc2cc(O)cc(O)c12 [NP 3, 8-(5-(5,7-dihydroxy-4-oxo-4H-chromen-2-yl)-2-hydroxyphenyl)-5,7-dihydroxy-2-(4-hydroxyphenyl)-4H-chromen-4-one] | 36 ± 6 µM | 36 ± 6 µM | 50 ± 8 µM | – |
| COC1C(OC(N)=O)C(O)C(Oc2ccc(-c3coc4cc(O)cc(O)c4c3=O)cc2)OC1(C)C (stereo not shown) [NP 5, 6-(4-(5,7-dihydroxy-4-oxo-4H-chromen-3-yl)phenoxy)-5-hydroxy-3-methoxy-2,2-dimethyl-tetrahydro-2H-pyran-4-yl carbamate] | 49 ± 3 µM | 49 ± 3 µM | 68 ± 4 µM | – |
| CC(C)CC[C@@H](O)[C@@H](C)[C@H]1CC[C@H]2[C@@H]3CC=C4C[C@@H](O)CC[C@]4(C)[C@H]3CC[C@]12C [22R, 22(R)-hydroxycholesterol] | – | – | – | EC50 ([1]; LXRα reporter gene activation): 13.3 µM; Efficacy ([1]; reporter gene transcription vs. T09): 4% |
| O=C1CC(c2ccccc2)Oc2c(Cc3cccc(O)c3O)c(O)c(Cc3cccc(O)c3O)c(O)c21 (stereo not shown) [NP 4, 6,8-bis(2,3-dihydroxybenzyl)-5,7-dihydroxy-2-phenylchroman-4-one] | 46 ± 4 µM | 46 ± 4 µM | 63 ± 5 µM | – |
| CCCCCCCCCCCCCCCc1cccc(O)c1C(=O)O [anacardic acid] | – | – | – | IC50 (p300 [2]): 8.5 µM |
| COc1c(-c2c(O)cc(O)c3c(=O)cc(-c4ccc(O)cc4)oc23)c(O)cc2oc(-c3ccc(O)cc3)cc(=O)c12 [NP 2, 5',7,7'-trihydroxy-2,2'-bis(4-hydroxyphenyl)-5-methoxy-6,8'-bi(4H-chromene)-4,4'-dione] | 28 ± 9 µM | 28 ± 9 µM | 39 ± 13 µM | – |
| CC(C)=CCc1c(O)cc(O)c2c(=O)c(O)c(-c3ccc(O)c(O)c3)oc12 [NP 9, 2-(3,4-dihydroxyphenyl)-3,5,7-trihydroxy-8-(3-methylbut-2-enyl)-4H-chromen-4-one] | – | – | – | IC50 (p300 [3]): 2.1 µM; levels of TNFα secreted (THP-1 cells): significant anti-inflammatory effects by reducing the levels of TNFα; IC50 (p300 [4]; MALDI MS assay, read-out: IC50 value): 1.71 µM; IC50 (p300 [4]; [6]): 1.71 ± 0.07 µM; times stronger than anacardic acid (p300 [4]; p300 IC50 comparison): about 4 times; times stronger than garcinol (p300 [4]; p300 IC50 comparison): about 3.5 times; IC50 (p300 [4]; [7]): 2.35 ± 0.09 µM |

Source: patent EP2759295A1, “Foam cell specific Liver X Receptor (LXR) alpha agonist, SIRT1 inhibitors as well as p300 inhibitors as pharmaceutically active agents” (Max-Planck-Gesellschaft zur Förderung der Wissenschaften …, priority 2013, dated 2014)
